Experimental data: patent US20080051464A1, “Protein phosphatase inhibitors” (The Cleveland Clinic Foundation, priority 2006, published 2008)

Legend:
[1] = target: T1, recombinant SHP-1 (Homo sapiens, UniProt P29350); assay: rapid in vitro SHP-1 PTPase assay (DIFMUP substrate); type: biochemical; conditions: 1 μg/well; FIG. 12A
T1 construct: Recombinant protein of SHP-1 PTPase catalytic domain was described
T1 sequence (P29350 244-515 limits assumed): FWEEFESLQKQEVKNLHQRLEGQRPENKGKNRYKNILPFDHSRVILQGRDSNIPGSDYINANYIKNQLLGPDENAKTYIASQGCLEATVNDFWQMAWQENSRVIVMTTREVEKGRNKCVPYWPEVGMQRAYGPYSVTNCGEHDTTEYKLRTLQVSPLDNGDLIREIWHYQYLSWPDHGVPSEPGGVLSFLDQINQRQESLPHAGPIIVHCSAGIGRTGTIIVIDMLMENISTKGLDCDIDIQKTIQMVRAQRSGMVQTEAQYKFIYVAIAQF
Description: Recombinant protein of SHP-1 PTPase catalytic domain was described and stored in Tris buffer (25 mM Tris, pH7.5, 1 mM EDTA, 2 μM 2-ME, 25% glycerol) at −80° C. Fluorescence substrate DIFMUP (6,8-difluoro-4 methylumbelliferyl phosphate) was purchased (Molecular Probes). SSG was reported previously (21-23) and stored at 4° C. in darkness prior to use. Human and mouse IFNγ ELISPOT Kit (R & D System), CD4^+ Cell Intracellular IFNγ Detection Kit (BD Bioscience) and CD8^+ Cell Intracellular IFNγ Detection Kit (BD Bioscience) were purchased from commercial sources. Human Jurkat T cell line (26) and murine B16 melanoma cell line (ATCC) were maintained in […] culture medium supplemented with 10% fetal calf serum (FCS). Antibodies against pLck-pY394 (Cell Signaling), pLck-pY505 (Cell Signaling), pZap70 (pY319, BD Biosciences), pSlp76 (pY128, BD Biosciences) and pLat (pY226, BD Biosciences) were purchased from commercial sources.
(§1) A rapid SHP-1 PTPase assay was developed for screening the compounds in a commercial library of 34,000 drug-like small chemicals (Chembridge, Mass.). Briefly, compounds of the library (1 μg/well in 0.21 DMSO) were placed in 96-well plates (Falcon, 353072) and mixed with recombinant SHP-1 protein (0.1 μg/well) in 90 μl of HEPES buffer (50 mM HEPS, pH 7.5, 150 mM NaCl, 1 mM EDTA, 0.2 mM DTT and 0.1 mg/ml BSA). The plates were incubated at room temperature for 10 minutes prior to the addition of fluorescence substrate DIFMUP (40 μM stock in HEPES buffer, 10 μl/well) to initiate PTPase reaction. Upon completion of PTPase reaction at room temperature for 1 hr in darkness, fluorescence signal of individual wells were recorded using a Vector^2 Multilabel Counter (Vector, CA). They were compared to that of control SHP-1 PTPase reaction (˜10,000 units of fluorescence signal) in the absence of any compound (100%) for calculating relative SHP-1 inhibition induced by the compounds after subtracting the background signal (˜500 units of fluorescence signal) of the substrate.
as §1, with “To evaluate their” for “A rapid”, “inhibitory activity,” for “PTPase assay was developed for screening”, “analogs” for “compounds in a commercial library of 34,000 drug-like small chemicals (Chembridge, Mass.). Briefly, compounds of the library”, “0.2 μl” for “0.21”, “aliquot individually to” for “placed in”, “(500” for “(˜500”

[2] = system: Jurkat cells; assay: Jurkat cell growth in culture (MTT assay); type: cell-based, human
Description: FIG. 3 illustrates differential toxicity of L5 and L6. Jurkat cells were cultured in the absence or presence of lead compound #5 (L5) (A) or #6 (L6) (B) for 6 days prior to quantification of cell growth by MTT assays. Data represent mean ±SD of triplicate samples. Balb/c mice were treated with L5 (˜10 mg/kg body weight, s.c., daily, M-F/wk) for two weeks to assess its toxicity in vivo (C).
(§2) L5, L6 and L6 analogs (Chembridge), mouse IFNγ ELISPOT Kit (R & D System) and antibody against pLck-pY394 or pERK1/2 (Cell Signaling) were purchased from commercial sources. Human Jurkat T cell line and murine B16 melanoma cell line (ATCC) and other cancer cell lines were maintained in […] culture medium supplemented with 10% fetal calf serum (FCS). The effects of chemical compounds on cancer cell growth in culture were quantified by MTT assays following our established procedures.

[3] = system: pLck-pY505 (dephosphorylated by PTPase CD45) in Jurkat cells; assay: pLck-pY505 in Jurkat cells (Western blotting); type: cell-based, human; conditions: L5-treated Jurkat cells
Description: Jurkat cells in culture medium (3×10^6 cells/ml, 1 ml/tube) were treated with agents for designated times at room temperature. After brief centrifuging in a microfuge (4,000 rpm, 2 min), the cell pellet was lysed on ice for 30 min in 100 μl of cold lysis buffer (1% NP40, 50 mM Tris, pH 7.4, 150 mM NaCl, 20 mM NaF, 0.2 mM Na3VO4 and 1 mM Na3MO4) containing a cocktail of proteinase inhibitors (Sigma, 1 tablet/10 ml). The lysates were cleared by centrifuging (14,000 rpm, 10 min) in a microfuge at 4° C. to remove insoluble parts, mixed with equal volume of 2×SDS-PAGE sample buffer, boiled for 5 min and analyzed (˜3×10^5 cells/well) by SDS-PAGE/Western blotting. Relative intensities of phosphotyrosine bands were quantified through densitometry analysis.

[4] = system: spleen pLck and IFNγ+ cells; assay: in vivo induction of spleen pLck and IFNγ+ cells in mice; set-up: species or system mouse
Description: Spleens were harvested one hour post-treatment on day 4 and processed into splenocytes, which were used for assessing pLck levels by SDS-PAGE/Western blotting and for quantification of IFNγ+ cells by ELISPOT assays. Mice were also treated with L5 (˜10 mg/kg body weight, daily, s.c., n=2) to evaluate the toxicity of the compounds in vivo.

[5] = system: B16 melanoma cells; assay: B16 melanoma cell growth in culture (MTT assay); type: cell-based, mouse; conditions: doses up to 10 μg/ml, 5 days
Description: as §2

## O=C1C=CC(=O)C(c2cc(Cl)ccc2Cl)=C1 [L5]
[1]
  inhibition of phosphatase activity of recombinant SHP-1: completely or almost completely inhibited
[2]
  toxicity against Jurkat cells in culture (summary): marked toxicity
[2]; ~30 ng-1 μg/ml, 6 days
  growth of Jurkat cells in culture: not markedly affected
[3]
  pLck-pY505: little effects
[4]; 1 mg/kg of body weight
  effect on pLck: only a minor effect
[4]; ~3 mg/kg of body weight, s.c., daily, 4 days
  increase of splenocyte pLck: ~3.3 fold
[4]; ~3 mg/kg, s.c., daily, 4 days
  increase of spleen IFNγ+ cells: approximately 3 fold
[5]
  direct toxicity against B16 cells: little direct toxicity
